Patent publication US20180021270A1, “METHODS FOR THE TREATMENT OF CANCER USING COENZYME Q10 IN COMBINATION WITH IMMUNE CHECKPOINT MODULATORS” (Berg LLC, priority 2016, published 2018)

What was measured:
[1] = system: T cell surface proteins in buffy coat; assay: Proteomic analysis of buffy coat samples from cancer patients administered Coenzyme Q10; type: in vivo, human; settings: patients with solid tumors, intravenous 4% Coenzyme Q10 nanosuspension; start vs end of treatment
Method: The ability of Coenzyme Q10 to modulate immune function in cancer patients was investigated by characterizing the molecular signature in buffy coats of patients administered Coenzyme Q10 for the treatment of solid tumors. A sterile Coenzyme Q10 (Ubidecarenone, USP) nanosuspension was administered intravenously to patients with solid tumors. Coenzyme Q10 was evaluated both as a monotherapy and in combination with standard chemotherapeutic agents (e.g. gemcitabine, 5-fluorouracil and docetaxel). The Coenzyme Q10 was provided as a 4% coenzyme Q10 nanosuspension formulation as described in WO 2011/112900, the entire contents of which are expressly incorporated herein by reference.
The effect of Coenzyme Q10 treatments on protein expression in immune cells within the buffy coat was evaluated. Furthermore, it was determined whether the proteins identified were known to be on the surface of T cells. To complete this analysis, buffy coat samples were subjected to shot gun global proteomic analysis, and a comprehensive list of proteins were generated for samples obtained from 25 patients being treated for solid tumors with Coenzyme Q10 as described above.
For proteomic analysis, data from two publically available T cell proteomic studies were combined. See Graessel A. et al., 2015, Molecular and Cellular Proteomics 14: 2085-2102; and Loyet K. M. et al., 2005, Proteome Research 4: 400, the entire contents of each of which are expressly incorporated herein by reference. Both studies defined the set of proteins on the surface of naïve and activated T cells to generate a working list of proteins potentially found on the T cell surface. This list (>600 proteins) was compared to the total proteome of the buffy coat (>2000 proteins) from twenty-five patients treated with Coenzyme Q10 as monotherapy.
A total of 62 common proteins shared between T cell surface proteome and the buffy coat proteome were identified. The relative change in protein levels (on the y-axis) represents the slope of the line derived from the linear regression of the level of each protein at the start of Coenzyme Q10 treatment versus the level at the end of Coenzyme Q10 treatment. FIG. 1 provides a schematic of the plot slope of linear regression representing the change in protein expression over time.

[2] = system: PD-1 on CD3 positive T cells within Balb/c PBMCs; assay: PD-1 surface expression on murine CD3 positive T cells; type: cell-based, mouse; settings: 0-800 μM, 24 hours, mean fluorescence intensity
Method: PD-1 surface expression on CD3 positive T cells within PHA stimulated or unstimulated Balb/c PBMCs was also evaluated. Cells were treated with Coenzyme Q10 (0, 12.5, 50, 200, 400 or 800 μM) for 24 hours and PD-1 expression was determined by gating live CD3 positive T cells. Mean fluorescence intensity values were evaluated in histogram plots for PD-1. Two experiments using two different pools of Balb/c PBMCs and one experiment using C57B1/6 PBMCs were conducted.

[3] = system: CD3 positive murine T cells within Balb/c PBMCs; assay: Viability of murine CD3 positive T cells within PBMCs; type: cell-based, mouse; settings: 0-800 μM, 24 hours, dose-dependent, non-stimulated and PHA-stimulated cells
Method: The effects of Coenzyme Q10 on murine immune cells were also evaluated to determine whether Coenzyme Q10 has similar effects as those described above for human immune cells. For example, the viability of murine CD3 positive T cells within PHA-stimulated or unstimulated Balb/c PBMCs was determined. Cells were concurrently treated with Coenzyme Q10 (0, 12.5, 50, 200, 400 or 800 μM) for 24 hours and analyzed by flow cytometry using surface marker antibody for αCD3 and viability stains Annexin V/7AAD. CD3 positive and CD3 negative cell populations were identified within total cell population excluding debris, and viability was determined by plotting Annexin V-FITC vs. 7AAD. Two experiments using two different pools of Balb/c PBMCs and one experiment using C57B1/6 PBMCs were conducted. As shown in FIGS. 21A and 21B, Coenzyme Q10 increased the viability of CD3 positive murine T cells in a dose-dependent manner for both non-stimulated and PHA-stimulated cells.

IL-10 = assay: Cytokine ELISA in PBMC supernatants; type: cell-based, human; settings: during PHA activation, various concentrations of Coenzyme Q10
Method: (§1) Cytokines were measured in the PBMCs according to the manufacturer's protocol for R&D Quantikine ELISA kits (R&D Systems, Inc., Minneapolis, Minn.) specific to each cytokine. PBMCs were collected from 3 donors (D003F, D004F and D005F).

IL-2 = assay: Cytokine ELISA in PBMC supernatants; type: cell-based, human; settings: during PHA activation, various concentrations of Coenzyme Q10
Method: as §1

interferon-γ (IFN-γ) = assay: Cytokine ELISA in PBMC supernatants; type: cell-based, human; settings: during PHA activation, various concentrations of Coenzyme Q10
Method: as §1

[4] = system: tumor infiltrating lymphocytes (TILs) in murine Pan02 pancreatic tumors; assay: CD8 IHC pathological scoring of tumor infiltrating lymphocytes in Pan02 tumors; type: in vivo, mouse
Method: Tumor samples from mice with murine Pan02 tumors treated with different doses of Coenzyme Q10 were analyzed for the presence of tumor infiltrating lymphocytes (TILs). C57B1/6 female mice were inoculated with 3×10^7 Pan02 cells. When tumors reached a mean volume of 100 mm^3, animals were randomized into four groups and treated with vehicle control or Coenzyme Q10 (25, 50 or 100 mg/kg) twice daily for 21 days. At the end of the study, tumors were removed and subjected to IHC analysis for Tumor Infiltrating Lymphocytes (TILs) with CD8 staining. All slides were subjected to a pathological scoring. […] As shown in FIGS. 29A and 29B, Coenzyme Q10 increased TILs in a dose-dependent manner.

[5] = 25 mg/kg twice daily for 21 days
[6] = 50 mg/kg twice daily for 21 days
[7] = 100 mg/kg twice daily for 21 days

For `COC1=C(OC)C(=O)C(C/C=C(\C)CC/C=C(\C)CC/C=C(\C)CC/C=C(\C)CC/C=C(\C)CC/C=C(\C)CC/C=C(\C)CC/C=C(\C)CC/C=C(\C)CCC=C(C)C)=C(C)C1=O` [Coenzyme Q10], the “Expression of CD8B in buffy coat” value [1] was “downregulated”, the “Expression of CD247 in buffy coat” value [1] was “downregulated” and the “Expression of CFL1 in buffy coat” value [1] was “upregulated”. For the same compound, the “Expression of S100A8 in buffy coat” value [1] was “upregulated”, the “PD-1 expression of PD-1 negative gated CD3+ T cells” value [2] was “does not affect” and the “PD-1 levels on PD-1 high expressing gated CD3+ T cells” value [2] was “increased”. The “Viability of CD3 positive murine T cells” value [3] was “increased”, the “IL-10 level in supernatant” value (IL-10) was “dose-dependently decreased” and the “IL-2 level in supernatant” value (IL-2) was “increased”. For the same compound, the “IFN-γ level in supernatant” value (interferon-γ (IFN-γ)) was “increased”, the “Percentage of mice with TIL levels Higher than Control” value [4, 5] was 40% and the “Percentage of mice with TIL levels Lower than Control” value [4, 5] was 10%. For the same compound, the “Percentage of mice with TIL levels Similar to Control” value (“Percentage of mice … to Control” for short) [4, 5] was 50%, the “Percentage of mice with TIL levels Higher than Control” value [4, 6] was 42.9% and the “Percentage of mice with TIL levels Lower than Control” value [4, 6] was 28.6%. For the same compound, the “Percentage of mice … to Control” value [4, 6] was 28.6%, the “Percentage of mice with TIL levels Higher than Control” value [4, 7] was 55.2% and the “Percentage of mice with TIL levels Lower than Control” value [4, 7] was 33.3%. For the same compound, the “Percentage of mice … to Control” value [4, 7] was 11.1% and the “Tumor infiltrating lymphocytes (TILs) in tumors” value ([4]; 25, 50 or 100 mg/kg twice daily for 21 days, dose-dependent) was “increased”.
